Reference: the NIST ThermoML archive (doi:10.1021/acs.jced.5b00773)
± gives the expanded uncertainty stated by the source. Blank lines part the entries; values can stand above or below the compound they belong to.

Details: Liquid, Closed cell (Static) method

vapor or sublimation pressure (473.46 K): 1500 ± 10 kPa
SMILES: CCC(C)O (stereo not drawn) [butan-2-ol]

vapor or sublimation pressure (462.75 K): 1500 ± 10 kPa
SMILES: CCOC(C)=O [ethyl acetate]

vapor or sublimation pressure (436.08 K): 1500 ± 10 kPa
SMILES: COC(C)=O [methyl ethanoate]
